Measurements: patent US20240382518A1, “PHARMACEUTICAL COMPOSITION AND HEALTH FUNCTIONAL FOOD FOR PREVENTION OR TREATMENT OF OSTEOARTHRITIS” (SEOUL NATIONAL UNIVERSITY R&DB FOUNDATION, priority 2021, published 2024)

Assays:
[1] = system: SEPHS1 knockout mouse-derived chondrocytes; test: senescence-associated β-galactosidase (SA-β-gal) activity in SEPHS1 knockout mouse-derived chondrocytes; format: cell-based; details: after NAC treatment
Protocol: (§1) For primary culture of mouse articular chondrocytes, cells derived from femoral condyle and tibial plateaus of 5-day-old ICR mice were isolated. Chondrocytes were cultured in DMEM medium containing 10% FBS (Gibco), 100 units/mL of penicillin, and 100 μg/mL of streptomycin. After 2 days, cells were treated according to the purpose of each experiment. The cultured cells were maintained at 37° C. under 5% CO2 and 3% O2 conditions. In addition, DNA damage and senescence-associated β-galactosidase (SA-β-gal) activity were measured to determine the relationship between SEPHS1 deficiency and cellular senescence. […] In order to determine whether the DNA damage and the increase in SA-β-gal activity caused by SEPHS1 inhibition were caused by the accumulation of ROS, SEPHS1 knockout mouse-derived chondrocytes were additionally treated with N-acetylcysteine (NAC), followed by repeatedly performing the same experiment. As a result, it was confirmed that DNA damage caused by SEPHS1 inhibition and the increase in SA-β-gal activity were reduced after NAC treatment (FIGS. 3P to 3S).

[2] = system: SEPHS1 knockout mouse-derived chondrocytes; test: DNA damage (γ-H2AX foci) in SEPHS1 knockout mouse-derived chondrocytes; format: cell-based; details: after NAC treatment
Protocol: as §1

SEPHS1-iCKO mice = test: post-traumatic osteoarthritis (DMM surgery) in SEPHS1-iCKO mice with NAC or selenate in drinking water; format: in vivo, mouse; details: for osteoarthritis phenotype of SEPHS1-iCKO mice: drinking water with NAC 1 mg/mL or sodium selenate 1 ppm, from 5 days prior to DMM
Protocol: Selenate supplementation or NAC treatment was performed by supplying mice with drinking water in which sodium selenate (1 ppm) or NAC (1 mg/mL) was dissolved. Further, to Sephs1-iCKO mice, NAC, selenate or vehicle was supplemented 5 days prior to DMM surgery.
Posttraumatic osteoarthritis (OA) was induced by executing DMM surgery in 12-week-old (WT C57BL/6) or 13-week-old (SEPHS1^fl/fl or SEPHS1^fl/fl; Col2a1-CreER^T2) mice, and mice (sham) without DMM after incision were used as a control. These mice were sacrificed 6 or 8 weeks after DMM or sham surgery.
As an aging-associated OA model, 24-month-old C57BL/6 male mice were used for histological analysis and 3-month-old mice were used as a control. The extent of cartilage degeneration in the knee joint was assessed by safranin-O staining and scored using the OARSI grading system.

| SMILES | increase in SA-β-gal activity [1] | DNA damage caused by SEPHS1 inhibition [2] | weight imbalance between the operated legs and the other legs without operation (SEPHS1-iCKO mice; SEPHS1-iCKO mice, NAC 1 mg/mL in drinking water) | osteoarthritis phenotype of SEPHS1-iCKO mice (SEPHS1-iCKO mice) |
| --- | --- | --- | --- | --- |
| CC(=O)N[C@@H](CS)C(=O)O [NAC, N-acetylcysteine] | reduced | reduced | alleviated | alleviated |
| O=[Se](=O)([O-])[O-].[Na+].[Na+] [selenate, sodium selenate] |  |  |  | did not restore |
